Measured values reported in patent US9359409B2, “Antimicrobial peptides, compositions comprising the same and uses thereof” (priority 2012, dated 2016).
Peptide text beside a SMILES is read from it.

Key:
[1] = system: Escherichia coli
Description: (§1) The 5 designed and synthesized peptides of the invention, plus omiganan (peptide of the state of the art) were evaluated for their antimicrobial capacity in microdilution assays for determining the minimum inhibitory concentration (MIC). A first panel of 8 representative strains was analyzed in these assays, encompassing Gram positive and Gram negative bacteria. […] The lowest MIC values indicate a higher antimicrobial potency.
(§2) Subsequently, an analysis of a panel of clinical isolates including strains with different resistance mechanisms against conventional antibiotics was carried out, all of which are of clinical relevance. […] In Table 3 the results for a panel of Gram negative bacteria are shown, and in Table 4 for a panel of […] bacteria. In these tables the detected gene/s responsible for the resistance against antibiotics for each strain, are included.
(§3) Antimicrobial activity was analyzed by means of the determination of the MIC (minimum inhibitory concentration) by the microdilution technique. The technique was carried out in the standard fashion according to (CLSI M07-A9 Vol. 32 No 2. January 2012). The peptide concentration range used was from 0.5 μg/mL to 512 μg/mL in two-fold serial dilutions. The used medium was MH Difco broth supplemented with cations, at a final concentration of Ca^++20-25 mg/L and Mg^++10-12.5 mg/L. The working inoculum used corresponds to a 1/100 dilution of a bacterial suspension equivalent to 0.5 in the Mc Farland scale.

[2] = system: Klebsiella pneumoniae
Description: as §1, §2, §3

[3] = system: Staphylococcus cohnii
Description: as §1, §2, §3

[4] = system: Staphylococcus warneri
Description: as §1, §2, §3

[5] = system: Pseudomonas aeruginosa; test: MIC by broth microdilution; format: cell-based
Description: as §1, §2, §3

[6] = system: E. coli; format: cell-based
Description: (§4) In vitro sensitivity assay of aerobically growing bacteria, using the disc diffusion method was performed according to the standards in the M2 document of the CLSI (Clinical and Laboratory Standards Institute: Performance Standards for Antimicrobial Disk Susceptibility Tests.) using the non-amidated peptides
(§5) In brief, intermediate solutions (10×) of the antimicrobial non-amidated peptides were prepared by serial dilutions 1:2, 1:4 and 1:8 by two-fold dilutions. Then, one part of the solution of the antimicrobial peptide 10× was added to nine parts of melted bacteriological agar. The antibiotic solution was added for each dilution, in the melted agar and cooled to 45-50° C. in a water bath. Then, the agar-antibiotic mixture was placed in a Petri dish until a 3-4 mm depth was reached. The inoculum is prepared with a turbidity of 0.5 in the McFarland scale (approximately 1-2 10^8 CFU/ml). The final inoculum required for the agar dilution test is 10^4 colony forming units (CFU) per “spot” having 5-8 mm in diameter. The inoculated plates must be incubated upside down at 35° C. for a period of 16-20 hs. MIC was recorded as the value of the lower dilution completely inhibiting bacterial development, without considering the development of a single colony or a slight film caused by the inoculum deposit. The final point in these cases will correspond to the concentration at which there is more than 80% reduction in growth as compared with the control.

[7] = system: K. pneumoniae; format: cell-based
Description: as §4, §5

[8] = system: P. aeruginosa; format: cell-based
Description: as §4, §5

[9] = system: S. aureus; format: cell-based
Description: as §4, §5

[10] = system: S. cohnii; format: cell-based
Description: as §4, §5

[11] = system: S. warnerii; format: cell-based
Description: as §4, §5

SMILES: CC[C@H](C)[C@H](NC(=O)[C@H](CCCCN)NC(=O)[C@H](CCCNC(=N)N)NC(=O)[C@H](CC(N)=O)NC(=O)CNC(=O)[C@H](CCCNC(=N)N)NC(=O)[C@H](Cc1ccccc1)NC(=O)[C@@H](NC(=O)[C@H](CS)NC(=O)[C@H](Cc1c[nH]cn1)NC(=O)[C@H](CC(C)C)NC(=O)[C@@H]1CCCN1C(=O)[C@H](CCC(N)=O)NC(=O)[C@@H]1CCCN1C(=O)[C@@H](NC(=O)[C@H](CC(N)=O)NC(=O)[C@@H]1CCCN1C(=O)[C@H](CC(C)C)NC(=O)CNC(=O)[C@@H](NC(=O)CNC(=O)[C@H](CO)NC(=O)[C@H](CC(C)C)NC(=O)[C@H](CC(C)C)NC(=O)[C@H](CC(=O)O)NC(=O)[C@H](CS)NC(=O)[C@@H](NC(=O)[C@@H](N)[C@@H](C)O)[C@@H](C)O)C(C)C)C(C)C)C(C)C)C(=O)N[C@@H](CCCCN)C(=O)N[C@@H](Cc1c[nH]c2ccccc12)C(N)=O [peptide 4] (H-TTCDLLSGVGLPNVPQPLHCVFRGNRKIKW-NH2)
- MIC [1]: >256 µg/mL
- MIC [2]: >256 µg/mL
- MIC [3]: >256 µg/mL
- MIC [4]: >256 µg/mL
- MIC [5]: >256 µg/mL
- MIC in agar dilution [6]: >128 µg/mL
- MIC in agar dilution [7]: >128 µg/mL
- MIC in agar dilution [8]: >128 µg/mL
- MIC in agar dilution [9]: >128 µg/mL
- MIC in agar dilution [10]: >128 µg/mL
- MIC in agar dilution [11]: >128 µg/mL
